The nature of this data set: Human HepG2 cell viability assay in 384 well format. Also noted: dose 125 nL, time 70.5 hour; cytotoxicity at 70.5 h: concentration not given beside the values. Type of data set: toxicity, cell-based. The settings on record: HepG2 cells, read-out: Inhibition.

As to `O=C([C@H]1C[C@@H]2CN(c3ncc(F)cn3)C[C@H]1O2)N1CCCC1`, the cytotoxicity at 70.5 h was -9.42%.
For the compound `COC[C@@H]1CCC[C@@]12CN(C(=O)N(C)C)CCO2`, the cytotoxicity at 70.5 h is 0.626%.
As for `CCOCc1cnc2n1CCN(C(=O)c1ccccc1)C2C` (configuration not stated), the figure is 19.2%; as for `CC(=O)NCc1nnn2c1CN(c1ncc(C)cn1)CCC2`, -20.5%.
The value for `CCOCc1cnc2n1CCN(C(=O)c1cn(C)c3ccccc13)C2C` (configuration not stated) was 8.97%; that for `COCC(=O)NCc1cc(=O)n2c(n1)CN(Cc1ccco1)CCC2` was 2.27%; that for `Cn1nc(C(=O)N2CCOCC2)c2c1CN(CC1CCC1)C2` was -5.26%.
On to `COCC(=O)NCc1cc(=O)n2c(n1)CN(Cc1nccs1)CCC2`, for which the cytotoxicity at 70.5 h is -5.03%.
As to `O=C(Cc1ccsc1)N1C[C@@H]2COC[C@]2(COc2cccnc2)C1`, the cytotoxicity at 70.5 h is -6.1%.
As for `O=C(c1ccnnc1)N1CCC2(CC1)CCN(C(=O)c1cccnc1)C2`, the figure is -0.196%; as for `CNC(=O)N1CC[C@@H]2CN(Cc3cccc(OC)c3)S(=O)(=O)[C@@H]2CC1`, -11.1%; as for `COCCC(=O)N1CCC2(COCc3cnc(-c4cccnc4)nc32)C1` (configuration not stated), -6.92%.
As for `Cn1nc(COc2cccnc2)c2c1CCN(c1ncccn1)C2`, the figure is -14.2%; as for `CS(=O)(=O)N1C[C@@H](NC(=O)c2ccno2)[C@@H]2OCCC[C@@H]21`, -12.2%; as for `Cc1cnc(N2CCc3onc(COc4cccnc4)c3C2)nc1`, -3.25%.
Take `CC(C)C(=O)N1CCC2(COCc3cnc(-c4cccnc4)nc32)C1` (configuration not stated): the cytotoxicity at 70.5 h was -7.75%.
The value for `CN(C)S(=O)(=O)N1CCC2(COCc3cnc(-c4cccnc4)nc32)C1` (configuration not stated) was -9.11%; that for `CS(=O)(=O)NC[C@]12COC[C@H]1CN(C(=O)C1CCSCC1)C2` was -5.88%.
The value for `Cc1noc([C@H]2C[C@@H]3CCN(C(=O)c4cccn4C)C[C@H]3O2)n1` was -3.46%; that for `CCC(Nc1nc(C)nc2onc(C)c12)c1cccs1` (configuration not stated) was -2.98%.
Take `COCc1noc(CCNC(=O)c2cc(C)c(C)[nH]c2=O)n1`: the cytotoxicity at 70.5 h is -7.79%.
For `CCCSCC(=O)N1CCCC(CO)(CCC)C1` (configuration not stated), the cytotoxicity at 70.5 h was -22.8%.
Take `O=C1CCCN1C1CCN(S(=O)(=O)CCOc2ccc(F)cc2)CC1`: the cytotoxicity at 70.5 h was found to be 23.9%.
As for `CC(C)=CCN1C[C@H]2CC[C@@H]1CN(C(=O)CCc1n[nH]c(C)n1)C2`, the figure is -1.3%; as for `Cc1cc(C(=O)N2CCCC(c3ccc(C(=O)O)cc3)C2)c(C)o1` (configuration not stated), -17.2%; as for `O=C(CN1CCOCC1)N1CCC2(CCCN(C3CCOCC3)C2=O)C1` (configuration not stated), 0.199%.
With `Cc1noc([C@@H]2CCCN2C(=O)C2CCN(CC(N)=O)CC2)n1`, the cytotoxicity at 70.5 h is -5.63%.
Turning to `COCc1noc(-c2ccc(N(C)Cc3ccc(C)o3)nc2)n1`, the cytotoxicity at 70.5 h was -2.55%.
As for `Cc1nc2c(c(=O)n1C)CCN(Cc1cc3cc[nH]c3cn1)CC2`, the figure is 10.6%; as for `CC(C)CCN1CCCC(Cn2cc(CCO)nn2)C1` (configuration not stated), -2.37%.
As for `CC(C)Nc1cc(N2CCCC3(CN(C)C(=O)O3)C2)ncn1` (configuration not stated), the figure is 15%; as for `O=C(O)c1cc(-c2ccncc2)cc(S(=O)(=O)N2CCSCC2)c1`, -6.71%; as for `COCCc1noc(C2CCCN(c3ncnc4c3CCC4)C2)n1` (configuration not stated), -13.9%.
The value for `Cc1cc(N[C@H]2CN(CC(C)(C)N3CCOCC3)C[C@@H]2C2CC2)ncn1` was -15.4%; that for `CCc1ncc(C(=O)N2CCCOC(Cn3cccn3)C2)cn1` (configuration not stated) was -0.891%.
Take `CN(Cc1n[nH]c2c1CCC2)c1nc(C2CCCC2)nc2c1CNC2`: the cytotoxicity at 70.5 h is -8.94%.
Turning to `Cn1ccnc1CN1C[C@@H](CN2CCCC2)[C@@H](CO)C1`, the cytotoxicity at 70.5 h was -5.13%.
With `Cn1ccnc1C1CCN(S(=O)(=O)c2ccc3oc(=O)[nH]c3c2)CC1`, the cytotoxicity at 70.5 h is -9.3%.
As for `Cc1cnc(C)c(N2CCC(C(=O)O)(n3ccc(C(C)(C)C)n3)CC2)n1`, the figure is 30.8%; as for `COc1cccc2ccc(CN3CCN(c4ncccn4)CC3)nc12`, -5.87%; as for `O=C(NCCc1csc(-c2cccnc2)n1)c1cnn2c1CCCC2`, -7.57%.
In the case of `O=S(=O)(NCC1CCCN(Cc2ccccc2F)C1)C1CC1` (configuration not stated), the cytotoxicity at 70.5 h was -5.21%.
As to `O=C(C1CC1)N1CCc2[nH]cnc2C12CCN(C1CCOCC1)CC2`, the cytotoxicity at 70.5 h was -2.02%.
As for `COCCN(Cc1ccc(C)cc1)Cc1nccn1C`, the figure is -0.21%; as for `COc1cc2c(cc1C(=O)N1CCCCC1c1ccccn1)CCC2` (configuration not stated), -24%.
As to `COc1ccc(C(=O)C2CCCN(Cc3cccc(F)c3)C2)c(OC)c1` (configuration not stated), the cytotoxicity at 70.5 h was -0.757%.
The value for `Cc1[nH]c2ccc(CNC3CCN(Cc4ccccn4)CC3)cc2c1C` was 3.44%; that for `CN(Cc1ccsc1)C(=O)c1ccc(C2CCCO2)s1` (configuration not stated) was 30.9%; that for `COCC1CCN(C(=O)c2cn(Cc3cccc(C(F)(F)F)c3)nn2)C1` (configuration not stated) was -12.5%.
As for `Cc1ccsc1CN(Cc1ncccc1C(=O)O)C1CC1`, the figure is -5.62%.
The value for `Cc1cccc(C(C(=O)N2CC(Oc3ccccc3F)C2)N(C)C)c1` (configuration not stated) was -1.02%; that for `FC(F)(F)CCc1ccnc(N2CCN(Cc3ccncc3)CC2)n1` was -13.8%.
As for `CCC(C)N(Cc1cnc(NCC(=O)O)nc1)Cc1ccsc1` (configuration not stated), the cytotoxicity at 70.5 h is -7.35%.
As for `Cc1ccc([C@@H]2CN(C(=O)c3cc(C)no3)C[C@H]2NC(=O)C2CC2)cc1`, the figure is -6.47%.
As for `CN(C(=O)CC1=CCCCC1)C1CCCN(C2Cc3ccccc3C2)C1` (configuration not stated), the cytotoxicity at 70.5 h was -0.808%.
The value for `CNC(=O)[C@@H]1C[C@@H](N)CN1c1nc(N2CCCC2)nc(C)c1C` was -10.2%; that for `Cc1cc(C)c2c(NCCC34CCCN3CCC4)ncnc2n1` was -3.78%.
In the case of `Cc1cc(C)c2ncn(CCOCCO)c(=O)c2c1`, the cytotoxicity at 70.5 h is -5.3%.
As for `COCCC1(CO)CCCN(Cc2ccc(C(F)(F)F)cc2)C1` (configuration not stated), the figure is -4.92%; as for `COCC1CC2(CCN(c3cc(OC)ncn3)CC2)CN1C(C)C` (configuration not stated), -8.64%.
Take `COCC1CC2(CCN(c3ccc(C)nn3)CC2)CN1C(C)C` (configuration not stated): the cytotoxicity at 70.5 h was -10.4%.
Take `CCO[C@H]1CN(CC2CC2)[C@@H]2CCCO[C@H]12`: the cytotoxicity at 70.5 h came to 1.44%.
For `COc1cccc(CN2C[C@@H]3COC[C@]3(CNC(=O)C3CC3)C2)c1`, the cytotoxicity at 70.5 h was -9.15%.
The value for `COCC1CC2(CCN(c3cccc(C)n3)CC2)CN1c1ncccn1` (configuration not stated) was -10.3%.
`O=C(c1cccnc1)N1CCC2(CCN(C(=O)c3ccco3)CC2)C1`: the cytotoxicity at 70.5 h was found to be 2.92%.
The value for `CCC1=N[C@@]2(CC[C@@H]3CN(Cc4ccc(F)cc4)C[C@@H]32)C(=O)N1C` was 0.293%; that for `O=C(c1cccnc1)N1CCC2(CCN(C(=O)N3CCCC3)CC2)C1` was -0.226%; that for `CC(C)N1CCc2c(C(=O)N3CCOCC3)nn(C)c2C1` was 0.371%.
The value for `COCC(=O)NC1CC2(CCN(CCO)CC2)c2ccccc21` (configuration not stated) was 8.06%; that for `O=C(NCCc1cccs1)[C@H]1CO[C@H]2CCN(C3CCC3)C[C@H]2C1` was -0.468%; that for `CCC1=N[C@@]2(CC[C@@H]3CN(Cc4ccccc4C)C[C@@H]32)C(=O)N1C` was 0.166%.
For `CCC1=N[C@@]2(CC[C@@H]3CN(Cc4cccc(Cl)c4)C[C@@H]32)C(=O)N1C`, the cytotoxicity at 70.5 h came to 16.7%.
As for `O=C(COC1CCCC1)N1C[C@@H]2COC[C@]2(COc2cccnc2)C1`, the figure is 3.14%; as for `O=C(NCCc1cccs1)[C@H]1CO[C@H]2CCN(CC3CC3)C[C@H]2C1`, -5.6%.
Regarding `Cn1cccc1C(=O)N1CCC2(CCN(C(=O)c3cccnc3)C2)CC1`, the cytotoxicity at 70.5 h worked out at 3.23%.
`CC(C)CNC(=O)N1CC[C@@H]2CN(Cc3cccnc3)S(=O)(=O)[C@@H]2CC1`: the cytotoxicity at 70.5 h is -4.92%.
The value for `O=C(CC1CC1)N1CCC2(CC1)CN(c1cccnc1)C(=O)CO2` was -4.69%; that for `CCS(=O)(=O)N1CCC2(CC1)CN(c1cccnc1)C(=O)CO2` was -5.49%.
With `CS(=O)(=O)NC[C@]12COC[C@H]1CN(CC1CCC1)C2`, the cytotoxicity at 70.5 h was -12.2%.
As for `CN(Cc1cncnc1)[C@@H]1CN(C(=O)C2CC2)[C@@H]2CCCO[C@H]12`, the cytotoxicity at 70.5 h is -3.07%.
The value for `CN(Cc1cncnc1)[C@@H]1CN(C(=O)c2ccco2)[C@@H]2CCCO[C@H]12` was -3.82%; that for `CC1CCN(C(=O)[C@@H]2C[C@@H]3CCN(Cc4nccs4)C[C@H]3O2)CC1` was -6.62%; that for `CN(C)C(=O)[C@H]1C[C@@H]2CCN(Cc3ccoc3)C[C@@H]2O1` was -13.4%.
With `Cn1cc(CNC2CCc3c(ccc(=O)n3Cc3ccncc3)C2)cn1` (configuration not stated), the cytotoxicity at 70.5 h is -15.3%.
The value for `CCCN1CCC2(CC1)CN(C(=O)c1cccnc1)c1ccc(F)cc12` was -8.65%.
The value for `CCN1CCC2(CC1)CN(C(=O)c1cccnc1)c1ccc(Cl)cc12` was -10.5%; that for `O=C(NC[C@]12COC[C@H]1CN(Cc1cccnc1)C2)C1CCC1` was -4.65%.
The value for `Cc1ccc(CN2CC3(CCN(C(=O)c4cccnc4)C3)C2)o1` was 3.03%; that for `Cn1nc(COc2cccnc2)c2c1CCN(CC1CC1)C2` was -8.94%.
As to `COc1ccc(CN2CCO[C@H]3[C@H](OCc4ccncc4)CC[C@@H]32)cc1`, the cytotoxicity at 70.5 h amounted to 58.1%.
The value for `Cc1ccc(CN2CCn3cc(CN4CCN(C)CC4)nc3C2)cc1` was -13.5%; that for `FC1(F)CCN(Cc2ccncc2)CC12CCN(c1cccnc1)C2` (configuration not stated) was 2.6%.

The values are drawn from ChEMBL document CHEMBL3507680, “University of Dundee, Gates Library screen for HepG2 cell viability”.
